Measurements from patent US8008007B2, “S-adenosyl-L-methionine analogs with extended activated groups for transfer by methyltransferases” (RWTH Aachen, priority 2005, dated 2011).

Experiments:
Format in all cases: biochemical
M.TaqI [1] = biological target: T1, M.TaqI (Thermus aquaticus, UniProt P14385); experiment: DNA protection assay with M.TaqI (wild-type) on phage lambda DNA; settings: 1 μg phage lambda DNA, cofactor 300 μM, 60° C. for 4 h, then R.TaqI; 1 u = minimal enzyme amount fully protecting 1 μg DNA
T1 construct: made in house
Excerpt: (§1) Transfer kinetics of the activated ethyl (—CH2CH3), propyl (—CH2CH2CH3), prop-2-enyl (—CH2CH═CH2), prop-2-ynyl (—CH2C≡CH), but-2-ynyl (—CH2C≡CCH3), pent-2-ynyl (—CH2C≡CCH2CH3) and benzyl group (—CH2C6H5) from cofactors 3-9 by the DNA adenine-N6 methyltransferase M.TaqI and its variant V21 G, the DNA cytosine-C5 methyltransferase M.HhaI and its variant Q82A, the DNA cytosine-N4 methyltransferase M.BcnIB and the DNA cytosine-C5 methyltransferase M.SssI variant Q142A to phage lambda DNA (48502 base pairs) were investigated using a DNA protection assay. This assay makes use of the fact that DNA methyltransferase-catalyzed modifications of nucleobases within the recognition sequences of restriction endonucleases can protect the DNA against fragmentation by these enzymes. […] Unmodified DNA containing 5′-TCGA-3′ recognition sequences is readily fragmentated by R.TaqI. After DNA modification by M.TaqI in the presence of a cofactor with an activated group Z—R modified 5′-TCGA^Z—R-3′ sequences are formed and, as a result, R.TaqI is unable to fragment the modified DNA. Occurrence of fragmentation is then analyzed by agarose gel electrophoresis.
(§2) By varying the amounts of DNA methyltransferase, this assay is used to investigate the enzymatic activities of the different DNA methyltransferases with cofactors 3-9 and compare them to the enzymatic activities with the natural cofactor 1. The minimal amount of DNA methyltransferase needed to fully protect 1 μg of phage lambda DNA against restriction endonuclease fragmentation under the given experimental conditions is defined as one enzyme unit (u).
(§3) Afterwards a solution (30 μL) containing R.TaqI restriction endonuclease (40 u, MBI Fermentas), bovine serum albumin (0.166 mg/mL) and buffer (16.6 mM Tris hydrochloride, 166 mM sodium chloride, 8.3 mM magnesium chloride, pH 8.0) was added to each dilution and incubation at 60-65° C. was continued for 15 min. Loading buffer (10 μL, 0.25% bromphenol blue, 30% glycerol) was added to each sample, and aliquots (12 μL) were analyzed for the degree of protection by agarose gel (1%) electrophoresis. Parallel control experiments were performed with phage lambda DNA in the absence of M.TaqI and in the presence of M.TaqI (200 ng).
Afterwards a solution (10 μL) containing R.TaqI restriction endonuclease (10 u, MBI Fermentas), bovine serum albumin (0.1 mg/mL) and buffer (33 mM Tris acetate, 66 mM potassium acetate, 10 mM magnesium acetate, pH 7.9) was added to each dilution and incubation was continued at 65° C. for 1 h. […] Parallel control experiments were performed with phage lambda DNA in the absence of M.TaqI and in the presence of M.TaqI (180 ng).

M.TaqI-V21G = biological target: T2, M.TaqI-V21G (Thermus aquaticus, UniProt P14385, V21G); experiment: DNA protection assay with M.TaqI variant V21G on phage lambda DNA; settings: 1 μg phage lambda DNA, cofactor 300 μM, 60° C. for 4 h, then R.TaqI
T2 construct: made in house
Excerpt: as §1, §2, §3
Therefore, the codon for V21 was changed to a codon for glycine by standard PCR mutagenesis (Ho et al., (1989) Gene 77, 51-59) and the correct DNA sequence of the complete gene was verified by DNA sequencing. […] The DNA protection assay with the V21G variant was performed as described for the wild type (Example 3A.1).

M.TaqI [2] = biological target: T1, M.TaqI; experiment: Modification of adenine-N6 in duplex oligodeoxynucleotide I.II by M.TaqI, nucleoside analysis by HPLC/ESI-MS; settings: 37° C. over night, near-stoichiometric enzyme
Excerpt: Transfer of the activated ethyl (CH2CH3), propyl (CH2CH2CH3), prop-2-enyl (CH2CHCH2), prop-2-ynyl group (CH2CCH), but-2-ynyl (CH2CCCH3), pent-2-ynyl (CH2CCCH2CH3) or benzyl group (CH2C6H5) from cofactors 3-9 by the DNA adenine-N6 methyltransferase M.TaqI, the DNA cytosine-C5 methyltransferase M.HhaI variant Q82A or the DNA cytosine-N4 methyltransferase M.BcnIB to DNA was first investigated using short duplex oligodeoxynucleotides as substrates. After enzymatic transfer the duplex oligodeoxynucleotides were enzymatically fragmented and the resulting modified nucleosides were analyzed by reversed-phase HPLC coupled with ESI-MS.
M.TaqI was denatured by heating to 95° C. for 10 min and removed by centrifugation ([…], 2 min). The modified duplex oligodeoxynucleotides I^Z—R-II were desalted by gel filtration (NAP-5 column, Amersham Biosciences, Freiburg, Germany), eluted with water (1 mL) and lyophilized.
The modified duplex oligodeoxynucleotides I^Z—R-II were dissolved in buffer (100 μL, 10 mM Tris hydrochloride, 10 mM magnesium chloride, 1 mM zinc acetate, pH 7.5) containing Nuclease PI (1500 u, Sigma, Taufkirchen, Germany) and calf intestine alkaline phosphatase (30 u, MBI Fermentas, St. Leon-Rot, Germany) and incubated at 37° C. for 4 h. Nucleosides were analyzed by reversed-phase HPLC (Symmetry-C18 5 μm, 100 Å, 250×4.6 mm, equipped with a Symmetry-C18 5 μm, 100 Å, 20×4.6 mm pre-column, Waters, Eschborn, Germany). Compounds were eluted with acetonitrile (5% for 7 min, followed by linear gradients to 6% in 15 min, to 35% in 8 min and to 70% in 2 min) in triethylammonium acetate buffer (10 mM, pH 7.0) at a flow of 1 mL/min and detected at 254 nm.
For HPLC-coupled ESI-MS measurements compounds were eluted with methanol (0% for 3 min, followed by a linear gradient to 100% in 22 min) in ammonium formate buffer (20 mM, pH 3.5). A post-column mobile phase modification (equal co-flow of 96% methanol, 4% formic acid) was used to enhance the detection efficiency of 2′-deoxyadenosine and its derivatives. Mass spectra were recorded in 200-370 m/z range.
The hemimethylated duplex oligodeoxynucleotide I.II (compare Scheme 5, Example 2A) was produced by mixing equal molar amounts of complementary single-stranded oligodeoxynucleotide I (5′-GCCGCTCGATGCCG-3′) (SEQ. ID NO. 1) and II (5′-CGGCATCGA^MeGCGGC-3′, A^Me=N6-methyl-2′-deoxyadenosine) (SEQ ID NO. 2) in water, heating at 85° C. for 5 min and slow cooling to room temperature. […] The solution was heated to 95° C. for 10 min, supplemented with Proteinase K and incubated at 55° C. for 2 h. Hydrolysis products were removed by gel filtration (G-25 column, Amersham Biosciences).
The obtained solution was treated with buffer ( 1/10 volume, 100 mM Tris hydrochlorid, 100 mM magnesium chloride, 10 mM zinc acetate, pH 7.5) containing Nuclease P1 (1.14 u, Sigma, Taufkirchen, Germany) and calf intestine alkaline phosphatase (18 u, MBI Fermentas), incubated at 42° C. for 4 h and passed through a Microcon YM-3 spin column (Amicon). Nucleosides were analyzed by reversed-phase HPLC (Discovery HS C18 75×2.1 mm, 3 μm, equipped with a Supelguard Discovery HS C18 20×2.1 mm, 5 μm, pre-column, Supelco, Germany) coupled with a mass spectrometric detector (HP 1100 series ESI-MS equipped with single quadruple). Compounds were eluted with methanol (0% for 3 min, followed by linear gradients to 20% in 15 min and to 80% in 2 min) in ammonium formate buffer (20 mM, pH 3.5) at a flow of 0.3 mL/min. For on-line mass spectrometric detection post-column mobile phase modification (equal co-flow of 96% methanol, 4% formic acid and 1 mM sodium hydroxide) was used to enhance the detection efficiency of 2′-deoxyadenosine, 2′-deoxycytidine and their derivatives. Mass spectra were recorded in 50-600 m/z range.

M.BcnIB = experiment: DNA protection assay with M.BcnIB (wild-type) on phage lambda DNA; settings: 1.10 μg phage lambda DNA, cofactor 300 μM, 37° C. for 4 h, then R.BcnI; pH 7.4 (pH 6.0 for cofactor 6)
Excerpt: as §1, §2
Afterwards the reactions were stopped by heating to 80° C. for 10 min. A solution (10 μL) containing R.BcnI restriction endonuclease (12 u, MBI Fermentas), bovine serum albumin (0.1 mg/mL) and buffer (33 mM Tris acetate, 66 mM potassium acetate, 26.5 mM magnesium chloride, pH 7.9) was added to each dilution and incubation at 37° C. was continued for 1 h. […] Parallel control experiments were performed with phage lambda DNA in the absence of M.BcnIB and in the presence of M.BcnIB (144 ng).

M.HhaI-Q82A = biological target: T3, M.HhaI-Q82A (Haemophilus parahaemolyticus, UniProt P05102, Q82A); experiment: DNA protection assay with M.HhaI variant Q82A on phage lambda DNA; settings: 1.16 μg phage lambda DNA, cofactor 300 μM, 37° C. for 4 h, then R.Hin6I; pH 7.4 (pH 6.0 for cofactor 6)
T3 construct: made in house
Excerpt: as §1, §2
(§4) Afterwards, the reactions were stopped by heating to 80° C. for 10 min. […] Parallel control experiments were performed with phage lambda DNA in the absence of M.HhaI and in the presence of M.HhaI (278 ng).
The DNA protection assay with the M.HhaI variant Q82A (see Example 2B) was performed as described for the wild type enzyme (Example 3B.1).

M.SssI-Q142A = biological target: T4, M.SssI-Q142A (Spiroplasma monobiae, UniProt P15840, Q142A); experiment: DNA protection assay with M.SssI variant Q142A on phage lambda DNA; settings: 1 μg phage lambda DNA, cofactor 300 μM, 37° C. for 4 h, then R.BstUI
T4 construct: made in house
Excerpt: as §1
By varying the amounts of DNA methyltransferase, this assay is used to investigate the enzymatic activities of the different DNA methyltransferases with cofactors 3-9 and compare them to the enzymatic activities with the natural cofactor 1. […]
Two fold serial dilutions (20 μL) of M.SssI-Q142A (starting with 3300 ng, 73 pmol) in buffer (10 mM Tris hydrochloride, 50 mM sodium chloride, 1 mM dithiothreitol, pH 7.9), phage lambda DNA (1 μg, 31.3 fmol, 3113 5′-CG-3′ recognition sequences, […] recognition sequences, MBI Fermentas) and the natural cofactor 1 (300 μM) or cofactor analogs 5 and 7 (300 μM) were incubated at 37° C. for 4 h. […] Loading buffer (10 μL, 0.25% bromphenol blue, 30% glycerol) was added to each sample, and aliquots (15 μL) were analyzed for the degree of protection by agarose gel (1%) electrophoresis.

M.HhaI = biological target: T5, M.HhaI (Haemophilus parahaemolyticus, UniProt P05102); experiment: DNA protection assay with M.HhaI (wild-type) on phage lambda DNA; settings: 1.16 μg phage lambda DNA, cofactor 300 μM, 37° C. for 4 h, then R.Hin6I; pH 7.4 (pH 6.0 for cofactor 6)
T5 construct: made in house
Excerpt: as §1, §2, §4

T1 sequence (P14385 whole entry): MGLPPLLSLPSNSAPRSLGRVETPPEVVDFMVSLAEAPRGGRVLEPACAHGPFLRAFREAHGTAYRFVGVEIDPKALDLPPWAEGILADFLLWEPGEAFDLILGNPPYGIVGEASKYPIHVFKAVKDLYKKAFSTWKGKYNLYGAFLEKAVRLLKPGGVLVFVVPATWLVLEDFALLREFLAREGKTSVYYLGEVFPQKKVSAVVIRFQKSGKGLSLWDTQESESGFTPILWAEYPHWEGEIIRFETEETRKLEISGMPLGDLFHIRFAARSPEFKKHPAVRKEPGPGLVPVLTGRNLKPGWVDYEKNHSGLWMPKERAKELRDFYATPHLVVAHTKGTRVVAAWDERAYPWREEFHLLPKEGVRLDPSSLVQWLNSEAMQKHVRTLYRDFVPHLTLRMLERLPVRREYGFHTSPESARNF
T2 sequence (P14385 whole entry V21G): as the sequence (P14385 whole entry) above, with V21G counted along it
T5 sequence (P05102 whole entry): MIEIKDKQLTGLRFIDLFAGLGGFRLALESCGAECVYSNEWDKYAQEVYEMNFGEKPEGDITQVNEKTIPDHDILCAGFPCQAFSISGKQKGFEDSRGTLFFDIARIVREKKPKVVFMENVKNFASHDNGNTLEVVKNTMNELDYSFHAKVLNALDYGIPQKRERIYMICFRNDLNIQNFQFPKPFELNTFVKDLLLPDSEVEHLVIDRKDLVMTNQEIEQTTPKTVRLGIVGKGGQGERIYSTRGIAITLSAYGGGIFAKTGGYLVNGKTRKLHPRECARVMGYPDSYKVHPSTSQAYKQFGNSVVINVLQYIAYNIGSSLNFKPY
T3 sequence (P05102 whole entry Q82A): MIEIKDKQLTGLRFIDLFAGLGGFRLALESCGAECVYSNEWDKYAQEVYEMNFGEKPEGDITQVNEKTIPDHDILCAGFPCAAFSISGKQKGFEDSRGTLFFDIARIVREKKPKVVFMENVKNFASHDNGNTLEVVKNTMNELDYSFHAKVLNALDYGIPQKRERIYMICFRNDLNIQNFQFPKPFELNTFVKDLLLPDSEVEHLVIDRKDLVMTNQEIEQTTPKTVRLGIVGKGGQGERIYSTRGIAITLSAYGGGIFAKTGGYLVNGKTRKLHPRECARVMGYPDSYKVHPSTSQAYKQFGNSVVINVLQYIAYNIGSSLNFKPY
T4 sequence (P15840 whole entry Q142A): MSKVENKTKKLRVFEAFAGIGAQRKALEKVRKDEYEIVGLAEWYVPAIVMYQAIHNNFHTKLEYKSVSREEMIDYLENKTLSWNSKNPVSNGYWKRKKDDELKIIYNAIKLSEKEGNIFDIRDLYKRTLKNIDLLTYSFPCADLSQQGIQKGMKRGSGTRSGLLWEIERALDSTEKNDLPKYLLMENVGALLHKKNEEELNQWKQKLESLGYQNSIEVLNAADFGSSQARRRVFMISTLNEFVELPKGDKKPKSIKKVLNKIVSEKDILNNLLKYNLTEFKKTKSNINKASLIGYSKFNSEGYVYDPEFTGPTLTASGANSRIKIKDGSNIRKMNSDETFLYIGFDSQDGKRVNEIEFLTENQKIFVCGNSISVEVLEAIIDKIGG

| Compound | specific activity of M.TaqI with the cofactor (M.TaqI [1]) [u/μg] | specific activity of M.TaqI-V21G with the cofactor (M.TaqI-V21G) [u/μg] | cofactor function for M.TaqI (transfer of group Z-R to adenine-N6) (M.TaqI [2]) | specific activity of M.BcnIB with the cofactor (M.BcnIB) [u/μg] | specific activity of M.HhaI-Q82A with the cofactor (M.HhaI-Q82A) [u/μg] | specific activity of M.SssI-Q142A with the cofactor (M.SssI-Q142A) [u/μg] | specific activity of M.HhaI with the cofactor (M.HhaI) [u/μg] |
| --- | --- | --- | --- | --- | --- | --- | --- |
| Nc1ncnc2c1ncn2C1OC(C[S+](CCC(N)C(=O)O)Cc2ccccc2)C(O)C1O (mixture of isomers) [Cofactor 9] | 640 | 2560 | functions as a cofactor | – | – | – | – |
| C[S+](CCC(N)C(=O)O)CC1OC(n2cnc3c(N)ncnc32)C(O)C1O (stereo not drawn) [Cofactor 1] | 40960 | 320 | – | 444 | 115 | 20 | 460 |
